Test results from patent US20260158017A1, “KIF18A INHIBITOR” (WIGEN BIOMEDICINE TECHNOLOGY (SHANGHAI) CO., LTD., priority 2021, published 2026).

Molecular target: T1, Recombinant human KIF18A (1-467His-tagged) protein (Homo sapiens, UniProt Q8NI77)
T1 construct: Recombinant human KIF18A (1-467His-tagged) protein; His; made in house
Assay: KIF18A enzyme assay (microtubule-stimulated ATPase activity, ADP-Glo)
Assay type: biochemical
Details: 30 nM KIF18A, 75 μM ATP, 30 μg/mL pig microtubules; read-out: Inhibitory activity against KIF18A IC50
Method in brief: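 Buffer 15 mM Tris pH 7.5, 10 mM MgCl2, 0.01% Pluronic F-68, 1 μM paclitaxel, 30 μg/mL pig microtubules; reactions at room temperature. IC50 from inhibition relative to DMSO.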

T1 sequence (Q8NI77 1-467): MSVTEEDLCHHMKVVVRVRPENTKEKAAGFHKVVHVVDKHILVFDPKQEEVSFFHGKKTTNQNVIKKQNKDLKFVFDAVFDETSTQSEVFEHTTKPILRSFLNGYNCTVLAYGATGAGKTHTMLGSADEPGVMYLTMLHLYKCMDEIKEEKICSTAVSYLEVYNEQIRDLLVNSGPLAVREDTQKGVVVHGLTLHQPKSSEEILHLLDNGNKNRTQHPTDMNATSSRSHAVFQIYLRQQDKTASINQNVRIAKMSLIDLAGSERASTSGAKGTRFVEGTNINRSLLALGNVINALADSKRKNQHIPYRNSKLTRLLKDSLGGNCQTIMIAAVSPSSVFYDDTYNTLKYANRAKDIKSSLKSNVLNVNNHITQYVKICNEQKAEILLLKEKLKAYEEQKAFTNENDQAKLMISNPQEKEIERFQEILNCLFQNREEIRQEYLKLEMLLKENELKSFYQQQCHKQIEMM
T1 sequence (P02550 whole entry partner): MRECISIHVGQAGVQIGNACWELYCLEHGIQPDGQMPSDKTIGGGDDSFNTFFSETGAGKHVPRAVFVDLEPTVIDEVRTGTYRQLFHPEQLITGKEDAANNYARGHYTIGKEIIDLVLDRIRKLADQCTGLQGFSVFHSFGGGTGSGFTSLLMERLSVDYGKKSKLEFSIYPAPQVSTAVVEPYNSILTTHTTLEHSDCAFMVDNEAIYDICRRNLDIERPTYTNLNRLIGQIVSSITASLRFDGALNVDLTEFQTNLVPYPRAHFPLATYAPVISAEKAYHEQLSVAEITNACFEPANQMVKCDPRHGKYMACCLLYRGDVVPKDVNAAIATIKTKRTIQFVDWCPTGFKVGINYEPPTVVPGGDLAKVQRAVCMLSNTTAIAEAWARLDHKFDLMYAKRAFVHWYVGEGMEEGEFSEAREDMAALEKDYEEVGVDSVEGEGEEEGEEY
T1 sequence (P02554 whole entry partner): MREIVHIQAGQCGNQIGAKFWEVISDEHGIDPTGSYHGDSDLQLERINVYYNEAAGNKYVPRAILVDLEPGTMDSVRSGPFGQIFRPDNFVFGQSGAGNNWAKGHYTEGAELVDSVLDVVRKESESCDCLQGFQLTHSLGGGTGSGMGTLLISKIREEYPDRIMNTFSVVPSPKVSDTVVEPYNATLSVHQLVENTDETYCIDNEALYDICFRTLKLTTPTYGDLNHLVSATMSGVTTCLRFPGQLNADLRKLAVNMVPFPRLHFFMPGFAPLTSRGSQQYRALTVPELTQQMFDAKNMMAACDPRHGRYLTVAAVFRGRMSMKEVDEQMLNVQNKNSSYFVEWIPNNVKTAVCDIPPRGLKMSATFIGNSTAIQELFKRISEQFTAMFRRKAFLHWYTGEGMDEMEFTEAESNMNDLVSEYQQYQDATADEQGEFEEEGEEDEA

SMILES | IC50
O=C(Nc1ccc(OCF)c(N2CCOCC2)n1)c1ccc(NS(=O)(=O)CCO)cc1N1CCC2(CC1)CC2 [Compound 428] | ≤ 100 nM
C[C@@H](CO)S(=O)(=O)Nc1ccc(C(=O)Nc2ccc(OCF)c(N3CCC(F)(F)CC3)n2)c(N2CCC3(CC2)CC3)c1 [Compound 429] | ≤ 100 nM
C[C@H](CO)S(=O)(=O)Nc1ccc(C(=O)Nc2ccc(OCF)c(N3CCC(F)(F)CC3)n2)c(N2CCC3(CC2)CC3)c1 [Compound 430] | ≤ 100 nM
C[C@@H]1CN(c2nc(NC(=O)c3ccc(NS(=O)(=O)[C@@H](C)CO)cc3N3CCC4(CC3)CC4)ccc2OCF)CCO1 [Compound 431] | ≤ 100 nM
C[C@@H]1CN(c2nc(NC(=O)c3ccc(NS(=O)(=O)[C@H](C)CO)cc3N3CCC4(CC3)CC4)ccc2OCF)CCO1 [Compound 432] | ≤ 100 nM
O=C(Nc1ccc(OCF)c(N2CCC(F)(F)CC2)n1)c1ccc(S(=O)(=O)NCCO)cc1N1CCC2(CC1)CC2 [Compound 433] | ≤ 100 nM
C[C@@H]1CN(c2nc(NC(=O)c3ccc(S(=O)(=O)NCCO)cc3N3CCC4(CC3)CC4)ccc2OCF)CCO1 [Compound 434] | ≤ 100 nM
C[C@H]1CN(c2nc(NC(=O)c3ccc(S(=O)(=O)NCCO)cc3N3CCC4(CC3)CC4)ccc2OCF)CCO1 [Compound 435] | ≤ 100 nM
O=C(Nc1ccc(OCF)c(N2CC(F)(F)C2)n1)c1ccc(S(=O)(=O)NCCO)cc1N1CCC2(CC1)CC2 [Compound 436] | ≤ 100 nM
O=C(Nc1ccc(OCF)c(OCCC(F)(F)F)n1)c1ccc(S(=O)(=O)NCCO)cc1N1CCC2(CC1)CC2 [Compound 437] | ≤ 100 nM
O=C(Nc1ccc(OCF)c(N2CCC3(CC3)C2)n1)c1ccc(S(=O)(=O)NCCO)cc1N1CCC2(CC1)CC2 [Compound 438] | ≤ 100 nM
O=C(Nc1ccc(OCF)c(OC2CCC2)n1)c1ccc(S(=O)(=O)NCCO)cc1N1CCC2(CC1)CC2 [Compound 439] | ≤ 100 nM
CC1(F)CCN(c2nc(NC(=O)c3ccc(S(=O)(=O)NCCO)cc3N3CCC4(CC3)CC4)ccc2OCF)C1 (stereo not shown) [Compound 440] | ≤ 100 nM
O=C(Nc1ccc(OCF)c(N2CCC(F)CC2)n1)c1ccc(S(=O)(=O)NCCO)cc1N1CCC2(CC1)CC2 [Compound 441] | ≤ 100 nM
O=C(Nc1ccc(OCF)c(N2CC3CC3C2)n1)c1ccc(S(=O)(=O)NCCO)cc1N1CCC2(CC1)CC2 (stereo not shown) [Compound 442] | ≤ 100 nM
CC(C)(CO)Nc1nc(NC(=O)c2ccc(S(=O)(=O)NCCO)cc2N2CCC3(CC2)CC3)ccc1OCF [Compound 443] | ≤ 100 nM

SMILES | IC50
O=C(Nc1ccc(OCF)c(N2CCOCC2)n1)c1ccc(S(=O)(=O)NCCO)cc1N1CCC2(CC1)CC2 [Compound 444] | ≤ 100 nM
C[C@@H](CO)NS(=O)(=O)c1ccc(C(=O)Nc2ccc(OCF)c(N3CCC(F)(F)CC3)n2)c(N2CCC3(CC2)CC3)c1 [Compound 445] | ≤ 100 nM
C[C@H](CO)NS(=O)(=O)c1ccc(C(=O)Nc2ccc(OCF)c(N3CCC(F)(F)CC3)n2)c(N2CCC3(CC2)CC3)c1 [Compound 446] | ≤ 100 nM
C[C@@H]1CN(c2nc(NC(=O)c3ccc(S(=O)(=O)N[C@@H](C)CO)cc3N3CCC4(CC3)CC4)ccc2OCF)CCO1 [Compound 447] | ≤ 100 nM
C[C@H](CO)NS(=O)(=O)c1ccc(C(=O)Nc2ccc(OCF)c(N3CCO[C@H](C)C3)n2)c(N2CCC3(CC2)CC3)c1 [Compound 448] | ≤ 100 nM
O=C(Nc1ccc(OCF)c(N2CCC(F)(F)CC2)c1)c1cnc(NS(=O)(=O)CCO)cc1N1CCC2(CC1)CC2 [Compound 449] | ≤ 100 nM
C[C@@H]1CN(c2cc(NC(=O)c3cnc(NS(=O)(=O)CCO)cc3N3CCC4(CC3)CC4)ccc2OCF)CCO1 [Compound 450] | ≤ 100 nM
C[C@H]1CN(c2cc(NC(=O)c3cnc(NS(=O)(=O)CCO)cc3N3CCC4(CC3)CC4)ccc2OCF)CCO1 [Compound 451] | ≤ 100 nM
O=C(Nc1ccc(OCF)c(N2CC(F)(F)C2)c1)c1cnc(NS(=O)(=O)CCO)cc1N1CCC2(CC1)CC2 [Compound 452] | ≤ 100 nM
O=C(Nc1ccc(OCF)c(OCCC(F)(F)F)c1)c1cnc(NS(=O)(=O)CCO)cc1N1CCC2(CC1)CC2 [Compound 453] | ≤ 100 nM
O=C(Nc1ccc(OCF)c(N2CCC3(CC3)C2)c1)c1cnc(NS(=O)(=O)CCO)cc1N1CCC2(CC1)CC2 [Compound 454] | ≤ 100 nM
O=C(Nc1ccc(OCF)c(OC2CCC2)c1)c1cnc(NS(=O)(=O)CCO)cc1N1CCC2(CC1)CC2 [Compound 455] | ≤ 100 nM
CC1(F)CCN(c2cc(NC(=O)c3cnc(NS(=O)(=O)CCO)cc3N3CCC4(CC3)CC4)ccc2OCF)C1 (stereo not shown) [Compound 456] | ≤ 100 nM
O=C(Nc1ccc(OCF)c(N2CCC(F)CC2)c1)c1cnc(NS(=O)(=O)CCO)cc1N1CCC2(CC1)CC2 [Compound 457] | ≤ 100 nM
O=C(Nc1ccc(OCF)c(N2CC3CC3C2)c1)c1cnc(NS(=O)(=O)CCO)cc1N1CCC2(CC1)CC2 (stereo not shown) [Compound 458] | ≤ 100 nM
CC(C)(CO)Nc1cc(NC(=O)c2cnc(NS(=O)(=O)CCO)cc2N2CCC3(CC2)CC3)ccc1OCF [Compound 459] | ≤ 100 nM

Further lines, results first:

IC50 | SMILES
≤ 100 nM | O=C(Nc1ccc(OCF)c(N2CCOCC2)c1)c1cnc(NS(=O)(=O)CCO)cc1N1CCC2(CC1)CC2 [Compound 460]
≤ 100 nM | C[C@@H](CO)S(=O)(=O)Nc1cc(N2CCC3(CC2)CC3)c(C(=O)Nc2ccc(OCF)c(N3CCC(F)(F)CC3)c2)cn1 [Compound 461]
≤ 100 nM | C[C@H](CO)S(=O)(=O)Nc1cc(N2CCC3(CC2)CC3)c(C(=O)Nc2ccc(OCF)c(N3CCC(F)(F)CC3)c2)cn1 [Compound 462]
≤ 100 nM | C[C@@H]1CN(c2cc(NC(=O)c3cnc(NS(=O)(=O)[C@@H](C)CO)cc3N3CCC4(CC3)CC4)ccc2OCF)CCO1 [Compound 463]
≤ 100 nM | C[C@@H]1CN(c2cc(NC(=O)c3cnc(NS(=O)(=O)[C@H](C)CO)cc3N3CCC4(CC3)CC4)ccc2OCF)CCO1 [Compound 464]
≤ 100 nM | O=C(Nc1ccc(OCF)c(N2CCC(F)(F)CC2)c1)c1cnc(S(=O)(=O)NCCO)cc1N1CCC2(CC1)CC2 [Compound 465]
≤ 100 nM | C[C@@H]1CN(c2cc(NC(=O)c3cnc(S(=O)(=O)NCCO)cc3N3CCC4(CC3)CC4)ccc2OCF)CCO1 [Compound 466]
≤ 100 nM | C[C@H]1CN(c2cc(NC(=O)c3cnc(S(=O)(=O)NCCO)cc3N3CCC4(CC3)CC4)ccc2OCF)CCO1 [Compound 467]
≤ 100 nM | O=C(Nc1ccc(OCF)c(N2CC(F)(F)C2)c1)c1cnc(S(=O)(=O)NCCO)cc1N1CCC2(CC1)CC2 [Compound 468]
≤ 100 nM | O=C(Nc1ccc(OCF)c(OCCC(F)(F)F)c1)c1cnc(S(=O)(=O)NCCO)cc1N1CCC2(CC1)CC2 [Compound 469]
≤ 100 nM | O=C(Nc1ccc(OCF)c(N2CCC3(CC3)C2)c1)c1cnc(S(=O)(=O)NCCO)cc1N1CCC2(CC1)CC2 [Compound 470]
≤ 100 nM | O=C(Nc1ccc(OCF)c(OC2CCC2)c1)c1cnc(S(=O)(=O)NCCO)cc1N1CCC2(CC1)CC2 [Compound 471]
≤ 100 nM | CC1(F)CCN(c2cc(NC(=O)c3cnc(S(=O)(=O)NCCO)cc3N3CCC4(CC3)CC4)ccc2OCF)C1 (stereo not shown) [Compound 472]
≤ 100 nM | O=C(Nc1ccc(OCF)c(N2CCC(F)CC2)c1)c1cnc(S(=O)(=O)NCCO)cc1N1CCC2(CC1)CC2 [Compound 473]
≤ 100 nM | O=C(Nc1ccc(OCF)c(N2CC3CC3C2)c1)c1cnc(S(=O)(=O)NCCO)cc1N1CCC2(CC1)CC2 (stereo not shown) [Compound 474]
≤ 100 nM | CC(C)(CO)Nc1cc(NC(=O)c2cnc(S(=O)(=O)NCCO)cc2N2CCC3(CC2)CC3)ccc1OCF [Compound 475]

IC50 | SMILES
≤ 100 nM | O=C(Nc1ccc(OCF)c(N2CCOCC2)c1)c1cnc(S(=O)(=O)NCCO)cc1N1CCC2(CC1)CC2 [Compound 476]
≤ 100 nM | C[C@@H](CO)NS(=O)(=O)c1cc(N2CCC3(CC2)CC3)c(C(=O)Nc2ccc(OCF)c(N3CCC(F)(F)CC3)c2)cn1 [Compound 477]
≤ 100 nM | C[C@H](CO)NS(=O)(=O)c1cc(N2CCC3(CC2)CC3)c(C(=O)Nc2ccc(OCF)c(N3CCC(F)(F)CC3)c2)cn1 [Compound 478]
≤ 100 nM | C[C@@H]1CN(c2cc(NC(=O)c3cnc(S(=O)(=O)N[C@@H](C)CO)cc3N3CCC4(CC3)CC4)ccc2OCF)CCO1 [Compound 479]
≤ 100 nM | C[C@H](CO)NS(=O)(=O)c1cc(N2CCC3(CC2)CC3)c(C(=O)Nc2ccc(OCF)c(N3CCO[C@H](C)C3)c2)cn1 [Compound 480]
≤ 100 nM | O=C(Nc1ccc(OCF)c(N2CCC(F)(F)CC2)n1)c1cnc(NS(=O)(=O)CCO)cc1N1CCC2(CC1)CC2 [Compound 481]
≤ 100 nM | C[C@@H]1CN(c2nc(NC(=O)c3cnc(NS(=O)(=O)CCO)cc3N3CCC4(CC3)CC4)ccc2OCF)CCO1 [Compound 482]
≤ 100 nM | C[C@H]1CN(c2nc(NC(=O)c3cnc(NS(=O)(=O)CCO)cc3N3CCC4(CC3)CC4)ccc2OCF)CCO1 [Compound 483]
≤ 100 nM | O=C(Nc1ccc(OCF)c(N2CC(F)(F)C2)n1)c1cnc(NS(=O)(=O)CCO)cc1N1CCC2(CC1)CC2 [Compound 484]
≤ 100 nM | O=C(Nc1ccc(OCF)c(OCCC(F)(F)F)n1)c1cnc(NS(=O)(=O)CCO)cc1N1CCC2(CC1)CC2 [Compound 485]
≤ 100 nM | O=C(Nc1ccc(OCF)c(N2CCC3(CC3)C2)n1)c1cnc(NS(=O)(=O)CCO)cc1N1CCC2(CC1)CC2 [Compound 486]
≤ 100 nM | O=C(Nc1ccc(OCF)c(OC2CCC2)n1)c1cnc(NS(=O)(=O)CCO)cc1N1CCC2(CC1)CC2 [Compound 487]
≤ 100 nM | CC1(F)CCN(c2nc(NC(=O)c3cnc(NS(=O)(=O)CCO)cc3N3CCC4(CC3)CC4)ccc2OCF)C1 (stereo not shown) [Compound 488]
≤ 100 nM | O=C(Nc1ccc(OCF)c(N2CCC(F)CC2)n1)c1cnc(NS(=O)(=O)CCO)cc1N1CCC2(CC1)CC2 [Compound 489]
≤ 100 nM | O=C(Nc1ccc(OCF)c(N2CC3CC3C2)n1)c1cnc(NS(=O)(=O)CCO)cc1N1CCC2(CC1)CC2 (stereo not shown) [Compound 490]
≤ 100 nM | CC(C)(CO)Nc1nc(NC(=O)c2cnc(NS(=O)(=O)CCO)cc2N2CCC3(CC2)CC3)ccc1OCF [Compound 491]
